Read-outs that look alike come from different tables or passages of the source.
Assays:
h5-HT2A receptor = h5-HT2A receptor (Homo sapiens, UniProt P28223); assay: Activation potency, FLIPR calcium assay in NIH-3T3 cells; type: cell-based; parameters: expressed in transfected cells
Description: Mouse embryonic fibroblasts (NIH-3T3) were transfected with the human 5-HT2A receptors, seed into 96-well plates coated with poly-D-lysine at a concentration of 70,000 cell per 0.1 mL and then incubated for 1 h at 37 °C in HEPES-Hank’s Balanced Salt Solution (HBSS) buffer (Gibco). Next, the plates were exposed to 100 μL/well of dye solution for 1 h at 37 °C inside the FLIPR (fluorescence imagining plate reader [FLIPR] calcium 5 assay kit; Molecular Devices, Sunnyvale, CA, USA). Then, the plates were exposed to the 25 μL/well of test drugs dissolved in HEPES–HBSS buffer and 250 mM probencid during online mode. The corresponding concentration vs. response curves were fitted using nonlinear regression and the EC50 values were calculated. The efficacy (maximal activity) was calculated relative to 5-HT activity, which was defined as 100%.

[1] = target: T1, human norepinephrine (hNET) uptake transporter (Homo sapiens, UniProt P23975); assay: Monoamine uptake inhibition, norepinephrine uptake in transfected HEK293 cells; type: cell-based; conditions: for fold higher inhibition potency at the NET: compared to α-PPP
T1 construct: expressed in transfected cells; host or cells: HEK293
Description: The monoamine uptake transporter inhibition was examined in accordance with previously described methods by for each substance of interest.
Human embryonic kidney 293 (HEK293) cells (Invitrogen, Zug, Switzerland) stably transfected with the human norepinephrine (hNET), dopamine (hDAT), or serotonin (hSERT) uptake transporters were briefly cultured in Dulbecco’s modified Eagle’s medium (DMEM; Gibco, Life Technologies, Zug, Switzerland) containing 10% fetal bovine serum and 250 μg/mL geneticin (Gibco, Life Technologies, Zug, Switzerland). Next, the cells were detached at a confluency of 70−90% and resuspended in Krebs–Ringer Bicarbonate Buffer (Sigma-Aldrich, Buchs, Switzerland) at a concentration of 3 × 10^6 cells per ml. The uptake buffer was additionally supplemented with 0.2 mg/mL of ascorbic acid (Sigma–Aldrich, Buchs, Switzerland) for the [^3H]-DA uptake experiments.
In summary, using round bottom 96-well plates, 100 μL of cell suspension was incubated in 25 μL of buffer containing test substances, vehicle control (0.7% dimethyl sulfoxide, DMSO), or 10 μM of the respective monoamine uptake inhibitor, mainly fluoxetine (SERT), nisoxetine (NET), or mazindol (DAT) for 10 min at room temperature while on a rotary shaker at 450 rpm (Thermomixer Comfort, Eppendorf, Hamburg, Germany). Thereafter, the monoamine uptake transporter was initiated by the addition of 50 μL of each respective radiolabelled neurotransmitter ([^3H]-5-HT, [^3H]-DA or [^3H]-NE) dissolved in the uptake buffer to a final concentration of 5 nM for an additional 10 min. Then, 100 μL of cell suspension mixture was transferred to microcentrifuge tubes containing 50 μL of 3 M potassium hydroxide (KOH, Sigma–Aldrich, Buchs, Switzerland) and 200 μL silicon oil (1:1 mixture of silicon oil type AR20 and AR200; Sigma–Aldrich, Buchs, Switzerland). Immediately after, the tubes were centrifugated (3 min, 13200 rpm) to terminate the uptake reaction by allowing the cells to move through the silicon oil into the KOH, which then lysed the cells. Quickly after, the tubes were immediately frozen with liquid nitrogen. Afterwards, the frozen cell pellet was cut off into 6 mL scintillation vials (Perkin–Elmer, Schwerzenbach, Switzerland) filled with 500 μL of lysis buffer (5 mM EDTA, 0.05 M TRIS-HCl, 50 mM NaCl and 1% NP-40 in water). Directly after the vials were shaken for 1 h at 700 rpm and then each vial was filled with 3 mL of scintillation fluid (Ultimagold, Perkin–Elmer, Schwerzenbach, Switzerland). The uptake of the monoamines was measured using a liquid scintillation counter (Packard Tri-Carb Liquid Scintillation Counter 1900 TR).
The data were analysed using Prism software (version 8, GraphPad, San Diego, CA, USA) and was fitted by a nonlinear regression to variable-slope sigmoidal dose-response curve. The IC50 values were extracted in order to determine each drug’s inhibition potency at the various monoamine transporters.

h5-HT1A receptor = target: T2, h5-HT1A receptor (Homo sapiens, UniProt P08908); assay: Radioligand binding, [3H]-8-OH-DPAT
T2 construct: expressed in transfected cells; host or cells: HEK293 cell preparations
T2 sequence (P08908 1-422): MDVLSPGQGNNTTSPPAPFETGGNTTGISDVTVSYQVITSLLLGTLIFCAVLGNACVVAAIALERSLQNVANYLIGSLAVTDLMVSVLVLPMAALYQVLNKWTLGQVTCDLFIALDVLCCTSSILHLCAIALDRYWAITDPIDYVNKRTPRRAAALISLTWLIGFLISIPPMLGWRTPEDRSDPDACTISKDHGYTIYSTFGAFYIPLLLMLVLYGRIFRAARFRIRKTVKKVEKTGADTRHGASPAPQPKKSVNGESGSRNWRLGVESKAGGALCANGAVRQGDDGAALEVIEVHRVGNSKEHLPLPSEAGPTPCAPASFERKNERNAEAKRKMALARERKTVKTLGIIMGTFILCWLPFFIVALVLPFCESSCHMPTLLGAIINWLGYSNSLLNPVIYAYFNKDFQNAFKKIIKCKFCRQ
Description: The radioligand binding assays for the human 5-HT1A, 5-HT2A, and 5-HT2C receptors were examined as previously described by. In summary, the human embryonic kidney 293 (HEK293) cell preparations were stably transfected with the human 5-HT1A, 5-HT2A or 5-HT2C receptors and then incubated with their respective radiolabelled ligands at a concentration equal to the dissociation constant, Kd. The following radioligands were used for the 5-HT1A, 5-HT2A, and 5-HT2C receptors, respectively; 0.90 nM [^3H]8-hydroxy-2-(dipropylamino) tetralin (8-OH-DPAT), 0.40 nM [^3H]ketanserin, and 1.4 nM [^3H]mesulgerine. The radioligand displacement for each examined drug was determined. Specific binding of the radioligand to the target was calculated by subtracting the nonspecific binding (in the presence of the receptor’s competitor in excess) from the total observed binding. The following radioligand competitors were used for the 5-HT1A, 5-HT2A, and 5-HT2C receptors, respectively; 10 μM pindolol (5-HT1A receptor), 10 μM spiperone (5-HT2A receptor), and 10 μM mianserin (5-HT2C receptor).

hSERT = hSERT (Homo sapiens, UniProt P31645); conditions: read-out: hSERT Receptor Binding Ki ± SD, [3H]-Citalopram, cited from earlier work
hDAT = hDAT (Homo sapiens, UniProt Q01959); conditions: read-out: hDAT Receptor Binding Ki ± SD, [3H]-WIN-35,428, cited from earlier work
[2] = ref Luethi, Kolaczynska et al. (2019)

Sequence of hDAT (Q01959 whole entry): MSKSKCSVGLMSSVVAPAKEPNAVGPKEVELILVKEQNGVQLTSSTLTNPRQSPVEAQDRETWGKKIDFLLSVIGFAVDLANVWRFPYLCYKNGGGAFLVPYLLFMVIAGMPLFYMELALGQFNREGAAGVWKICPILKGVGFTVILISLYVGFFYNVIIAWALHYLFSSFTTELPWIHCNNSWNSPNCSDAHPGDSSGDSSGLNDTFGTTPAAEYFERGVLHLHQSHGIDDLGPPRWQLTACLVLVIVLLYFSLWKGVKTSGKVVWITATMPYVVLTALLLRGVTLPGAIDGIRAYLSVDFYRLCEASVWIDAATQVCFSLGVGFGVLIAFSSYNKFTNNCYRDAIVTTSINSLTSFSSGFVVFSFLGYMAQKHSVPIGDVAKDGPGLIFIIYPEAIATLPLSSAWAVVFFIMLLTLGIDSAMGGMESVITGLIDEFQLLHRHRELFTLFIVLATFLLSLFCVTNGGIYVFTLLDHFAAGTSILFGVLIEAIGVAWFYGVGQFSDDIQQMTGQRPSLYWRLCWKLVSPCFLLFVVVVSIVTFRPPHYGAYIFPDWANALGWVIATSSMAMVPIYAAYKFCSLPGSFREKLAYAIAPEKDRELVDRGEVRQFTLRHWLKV
Sequence of hSERT (P31645 whole entry): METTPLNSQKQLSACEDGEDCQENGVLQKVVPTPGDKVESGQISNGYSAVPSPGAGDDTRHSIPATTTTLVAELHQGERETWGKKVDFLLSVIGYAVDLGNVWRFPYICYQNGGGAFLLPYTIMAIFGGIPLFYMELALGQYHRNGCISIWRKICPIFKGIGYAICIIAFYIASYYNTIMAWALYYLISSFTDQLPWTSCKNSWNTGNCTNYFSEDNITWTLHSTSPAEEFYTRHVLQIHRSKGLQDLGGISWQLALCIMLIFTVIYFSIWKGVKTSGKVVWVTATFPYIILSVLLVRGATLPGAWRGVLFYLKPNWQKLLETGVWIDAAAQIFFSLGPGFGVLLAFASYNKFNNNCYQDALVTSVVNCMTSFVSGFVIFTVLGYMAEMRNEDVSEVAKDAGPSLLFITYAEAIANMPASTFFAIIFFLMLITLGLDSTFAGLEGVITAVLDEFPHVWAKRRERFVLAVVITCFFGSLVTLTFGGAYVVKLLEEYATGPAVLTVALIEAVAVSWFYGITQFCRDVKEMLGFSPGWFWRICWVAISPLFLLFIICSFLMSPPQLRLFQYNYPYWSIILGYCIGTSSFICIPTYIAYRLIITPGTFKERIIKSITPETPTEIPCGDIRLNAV
Sequence of h5-HT2A receptor (P28223 whole entry): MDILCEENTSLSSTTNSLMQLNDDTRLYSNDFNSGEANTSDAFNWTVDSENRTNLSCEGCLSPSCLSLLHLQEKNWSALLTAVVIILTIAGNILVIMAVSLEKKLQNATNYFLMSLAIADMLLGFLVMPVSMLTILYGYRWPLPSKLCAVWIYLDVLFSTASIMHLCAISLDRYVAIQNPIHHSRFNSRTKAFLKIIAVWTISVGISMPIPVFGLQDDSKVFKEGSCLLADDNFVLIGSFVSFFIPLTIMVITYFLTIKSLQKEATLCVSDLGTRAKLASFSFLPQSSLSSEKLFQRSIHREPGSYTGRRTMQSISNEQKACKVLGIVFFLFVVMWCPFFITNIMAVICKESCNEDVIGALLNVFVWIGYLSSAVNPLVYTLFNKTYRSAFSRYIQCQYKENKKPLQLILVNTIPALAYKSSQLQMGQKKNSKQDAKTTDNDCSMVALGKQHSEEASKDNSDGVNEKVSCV
T1 sequence (P23975 whole entry): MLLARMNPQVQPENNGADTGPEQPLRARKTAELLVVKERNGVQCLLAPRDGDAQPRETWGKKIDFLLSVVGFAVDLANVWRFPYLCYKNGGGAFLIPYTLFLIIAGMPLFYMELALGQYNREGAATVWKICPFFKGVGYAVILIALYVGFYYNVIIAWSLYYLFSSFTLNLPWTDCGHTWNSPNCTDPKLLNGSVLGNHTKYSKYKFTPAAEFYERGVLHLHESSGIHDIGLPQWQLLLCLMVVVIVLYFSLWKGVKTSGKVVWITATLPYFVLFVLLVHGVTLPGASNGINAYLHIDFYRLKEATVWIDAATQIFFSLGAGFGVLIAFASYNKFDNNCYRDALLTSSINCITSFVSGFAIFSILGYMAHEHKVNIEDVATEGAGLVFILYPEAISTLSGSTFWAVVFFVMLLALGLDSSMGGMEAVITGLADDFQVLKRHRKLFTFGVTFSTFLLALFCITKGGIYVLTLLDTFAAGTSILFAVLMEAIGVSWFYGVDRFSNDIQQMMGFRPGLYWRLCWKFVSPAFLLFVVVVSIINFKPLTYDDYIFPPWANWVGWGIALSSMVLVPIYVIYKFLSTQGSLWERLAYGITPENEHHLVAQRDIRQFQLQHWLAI

Cc1ccc(C(=O)C(C)N2CCCC2)cc1 (stereo not drawn) [4-MePPP, 4-methyl-α-pyrrolidinopropiophenone]
EC50 (h5-HT2A receptor): > 10 µM | IC50 [1]: 0.64 µM | fold lower potency at the NET ([1]; compared to pyrovalerone and MPHP): 11 fold | Ki (h5-HT1A receptor): 12 ± 2.2 µM

CCC(C(=O)c1ccc(F)cc1)N1CCCC1 (stereo not drawn) [4F-PBP, 4-fluoro-α-pyrrolidinobutiophenone]
EC50 (h5-HT2A receptor): > 20 µM | IC50 [1]: 0.61 µM | Ki (h5-HT1A receptor): 6 ± 3.4 µM

CNC(C)Cc1ccc2c(c1)OCO2 (centres unmarked) [MDMA, 3,4-methylenedioxymethamphetamine, reference compound]
Ki (hSERT; [2]): > 7.5 µM | IC50 [1]: 0.41 µM | Ki (hDAT; [2]): > 8.5 µM

CCC(C(=O)c1ccc2c(c1)OCO2)N1CCCC1 (stereo not drawn) [MDPBP, 3,4-methylenedioxy-α-pyrrolidinobutiophenone]
EC50 (h5-HT2A receptor): > 20 µM | Ki (hSERT; ref Rickli et al. (2015)): 4.1 ± 1.2 µM | IC50 [1]: 0.14 µM | Ki (hDAT; ref Rickli et al. (2015)): 0.02 ± 0.002 µM | Ki (h5-HT1A receptor): 9 ± 1.5 µM

CCCCC(C(=O)c1ccc2c(c1)OCO2)N1CCCC1 (stereo not drawn) [MDPHP, 3,4-methylenedioxy-α-pyrrolidinohexanophenone]
EC50 (h5-HT2A receptor): > 20 µM | IC50 [1]: 0.06 µM | Ki (h5-HT1A receptor): 13 ± 1.9 µM

CC(C(=O)c1ccc2c(c1)OCO2)N1CCCC1 (stereo not drawn) [MDPPP, 3,4-methylenedioxy-α-pyrrolidinopropiophenone]
EC50 (h5-HT2A receptor): > 20 µM | Ki (hSERT; ref Rickli et al. (2015)): 12 ± 1 µM | IC50 [1]: 1.7 µM | Ki (hDAT; ref Rickli et al. (2015)): 0.18 ± 0.05 µM | Ki (h5-HT1A receptor): 1.9 ± 0.8 µM

CCCC(C(=O)c1ccc2c(c1)OCO2)N1CCCC1 (centres unmarked) [MDPV, 3,4-methylenedioxypyrovalerone]
EC50 (h5-HT2A receptor): > 20 µM | Ki (hSERT; ref Simmler et al. (2013)): 2.9 ± 0.1 µM | IC50 [1]: 0.05 µM | Ki (hDAT; ref Simmler et al. (2013)): 0.01 ± 0.002 µM | Ki (h5-HT1A receptor): 7.7 ± 0.6 µM

COc1ccc(C(=O)C(C)N2CCCC2)cc1 (stereo not drawn) [MOPPP, 4-methoxy-α-pyrrolidinopropiophenone]
EC50 (h5-HT2A receptor): > 20 µM | IC50 [1]: 8.7 µM | NET IC50 value fold higher ([1]; than observed for α-PPP): about 14 fold | Ki (h5-HT1A receptor): > 17 µM

CCCCC(C(=O)c1ccc(C)cc1)N1CCCC1 (stereo not drawn) [MPHP, 4-methyl-α-pyrrolidinohexanophenone]
EC50 (h5-HT2A receptor): > 20 µM | IC50 [1]: 0.07 µM | Ki (h5-HT1A receptor): 13 ± 1.9 µM

CCCCC(NCC)C(=O)c1ccccc1 (centres unmarked) [NEH, N-ethylamine-hexanophenone]
EC50 (h5-HT2A receptor): > 20 µM | IC50 [1]: 0.17 µM | Ki (h5-HT1A receptor): > 17 µM

CCCC(C(=O)c1ccc(C)cc1)N1CCCC1 (centres unmarked) [Pyrovalerone, pyrovalerone]
EC50 (h5-HT2A receptor): > 20 µM | Ki (hSERT; ref Simmler et al. (2013)): 5 ± 0.3 µM | IC50 [1]: 0.06 µM | Ki (hDAT; ref Simmler et al. (2013)): 0.03 ± 0.01 µM | Ki (h5-HT1A receptor): 13 ± 1.4 µM

CCCCC(C(=O)c1ccccc1)N1CCCC1 (stereo not drawn) [α-PHP, α-pyrrolidinohexanophenone]
EC50 (h5-HT2A receptor): > 20 µM | IC50 [1]: 0.06 µM | fold higher inhibition potency at the NET [1]: 11 fold | Ki (h5-HT1A receptor): 11 ± 5.3 µM

CC(C(=O)c1ccccc1)N1CCCC1 (stereo not drawn) [α-PPP, α-pyrrolidinopropiophenone]
EC50 (h5-HT2A receptor): > 20 µM | IC50 [1]: 0.64 µM | Ki (h5-HT1A receptor): 0.7 ± 0.3 µM

CCCC(C(=O)c1ccccc1)N1CCCC1 (stereo not drawn) [α-PVP, α-pyrrolidinopentiophenone]
EC50 (h5-HT2A receptor): > 20 µM | Ki (hSERT; ref Rickli et al. (2015)): > 30 µM | IC50 [1]: 0.02 µM | fold higher inhibition potency at the NET [1]: 32 fold | Ki (hDAT; ref Rickli et al. (2015)): 0.007 ± 0.002 µM | Ki (h5-HT1A receptor): 6.1 ± 0.7 µM
